Laboratory results taken from patent publication US12185723B2, “Herbicidally active 3-phenylisoxazoline-5-carboxamides of s-containing cyclopentenylcarboxylic esters” (Bayer Aktiengesellschaft, priority 2019, dated 2025).

What was measured:
Assay type in all cases: in vivo
[1] = test system: Alopecurus myosuroides; assay: Post-emergence herbicidal action against ALOMY; conditions: visual rating about 3 weeks after treatment
Protocol: (§1) Post-Emergence Herbicidal Action Against Harmful Plants and Crop Plant Compatibility Seeds of monocotyledonous and dicotyledonous weeds and crop plants are placed in sandy loam in plastic or wood-fibre pots, covered with soil and cultivated in a greenhouse under controlled growth conditions. 2 to 3 weeks after sowing, the test plants are treated at the one-leaf stage. The compounds of the invention, formulated in the form of wettable powders (WP) or as emulsion concentrates (EC), are then sprayed onto the green parts of the plants as aqueous suspension or emulsion with addition of 0.5% additive at a water application rate of 600 l/ha (converted). After the test plants have been kept in the greenhouse under optimum growth conditions for about 3 weeks, the activity of the preparations is rated visually in comparison to untreated controls. For example, 100% activity=the plants have died, 0% activity=like control plants. [table]

[2] = test system: Veronica persica; assay: Post-emergence herbicidal action against VERPE
Protocol: as §1

[3] = test system: Lolium rigidum; assay: Post-emergence herbicidal action against LOLRI; conditions: visual rating about 3 weeks after treatment
Protocol: as §1

[4] = test system: Pharbitis purpurea; assay: Post-emergence herbicidal action against PHBPU; conditions: 20 g a.i./ha
Protocol: as §1

[5] = test system: Amaranthus retroflexus; assay: Post-emergence herbicidal action against AMARE; conditions: 20 g a.i./ha
Protocol: as §1

[6] = test system: Matricaria inodora; assay: Post-emergence herbicidal action against MATIN; conditions: 20 g a.i./ha
Protocol: as §1

[7] = test system: DIGSA; assay: Post-emergence herbicidal action against DIGSA; conditions: visual rating about 3 weeks after treatment
Protocol: as §1, with “plants.” for “plants. [table]”

[8] = test system: Avena fatua; assay: Post-emergence herbicidal action against AVEFA; conditions: visual rating about 3 weeks after treatment
Protocol: as §1

[9] = test system: Polygonum convolvulus; assay: Post-emergence herbicidal action against POLCO; conditions: 20 g a.i./ha
Protocol: as §1

[10] = test system: Echinochloa crus-galli; assay: Post-emergence herbicidal action against ECHCG; conditions: visual rating about 3 weeks after treatment
Protocol: as §1

[11] = test system: Abutilon theophrasti; assay: Post-emergence herbicidal action against ABUTH; conditions: 20 g a.i./ha, visual rating about 3 weeks after treatment
Protocol: as §1

[12] = test system: Setaria viridis; assay: Post-emergence herbicidal action against SETVI; conditions: visual rating about 3 weeks after treatment
Protocol: as §1

[13] = test system: Stellaria media; assay: Post-emergence herbicidal action against STEME; conditions: 80 g a.i./ha
Protocol: as §1

[14] = test system: Hordeum murinum; assay: Post-emergence herbicidal action against HORMU
Protocol: as §1

Row | Compound | Herbicidal action against [%] ALOMY ([1]; 20 g a.i./ha) [%] | Herbicidal action against [%] VERPE ([2]; 20 g a.i./ha) [%] | Herbicidal action against [%] LOLRI ([3]; 20 g a.i./ha) [%] | Herbicidal action against [%] PHBPU [4] [%] | Herbicidal action against [%] AMARE [5] [%] | Herbicidal action against [%] MATIN [6] [%] | Herbicidal action against [%] DIGSA ([7]; 20 g a.i./ha) [%] | Herbicidal action against [%] AVEFA ([8]; 20 g a.i./ha) [%] | Herbicidal action against [%] POLCO [9] [%] | Herbicidal action against [%] ECHCG ([10]; 20 g a.i./ha) [%] | Herbicidal action against [%] ABUTH [11] [%] | Herbicidal action against [%] SETVI ([12]; 20 g a.i./ha) [%] | also measured
1 | COC(=O)CSCCOC(=O)C1C=CC(NC(=O)C2(C)CC(c3cc(F)cc(F)c3)=NO2)C1 (centres unmarked) [Example I-64] | 90 | 80 | 90 | 80 | 90 | 90 | 90 | 90 | 80 | 90 | 80 | 80 | –
2 | C=CC1(C(=O)NC2C=CC(C(=O)OCCSC)C2)CC(c2cc(C)cc(C)c2)=NO1 (mixture of isomers) [Example I-45] | – | 80 | – | – | – | – | – | – | – | – | – | – | Herbicidal action against [%] ALOMY ([1]; 80 g a.i./ha): 90%; Herbicidal action against [%] VERPE ([2]; 80 g a.i./ha): 80%; Herbicidal action against [%] LOLRI ([3]; 80 g a.i./ha): 90%; Herbicidal action against [%] STEME [13]: 90%; Herbicidal action against [%] AVEFA ([8]; 80 g a.i./ha): 80%; Herbicidal action against [%] HORMU ([14]; 20 g a.i./ha): 80%; Herbicidal action against [%] HORMU ([14]; 80 g a.i./ha): 80%; Herbicidal action against [%] ECHCG ([10]; 80 g a.i./ha): 80%; Herbicidal action against [%] SETVI ([12]; 80 g a.i./ha): 80%
3 | CCS(=O)(=O)CCOC(=O)C1C=CC(NC(=O)C2(C)CC(c3cc(F)cc(F)c3)=NO2)C1 (centres unmarked) [Example I-01] | 90 | 80 | 100 | 80 | 90 | – | 90 | 90 | 90 | 90 | 90 | 90 | –
4 | CC1(C(=O)NC2C=CC(C(=O)OCCSc3ccccc3)C2)CC(c2cc(F)cc(F)c2)=NO1 (centres unmarked) [Example I-16] | 90 | 80 | – | 80 | – | 80 | 80 | 90 | 80 | 80 | 80 | 80 | –
5 | C=CC1(C(=O)NC2C=CC(C(=O)OCCSC)C2)CC(c2cc(Cl)cc(Cl)c2)=NO1 (centres unmarked) [Example I-55] | 100 | 90 | – | 80 | 90 | 80 | 80 | 80 | 80 | – | 80 | 90 | –
6 | CSCCOC(=O)C1C=CC(NC(=O)C2(CCl)CC(c3cc(C)cc(F)c3)=NO2)C1 (centres unmarked) [Example I-57] | 80 | – | – | – | – | 80 | – | – | – | – | – | – | –
7 | COC1(C(=O)NC2C=CC(C(=O)OCCSC)C2)CC(c2cc(F)cc(F)c2)=NO1 (centres unmarked) [Example I-20] | 90 | 80 | 90 | 80 | 80 | 80 | 80 | 90 | – | 90 | 80 | 80 | –
8 | C[S+]([O-])CCOC(=O)C1C=CC(NC(=O)C2(C)CC(c3cc(F)cc(F)c3)=NO2)C1 (mixture of isomers) [Example I-66] | 90 | – | 80 | 80 | 80 | 80 | – | 80 | 80 | 80 | – | – | –
9 | CC1(C(=O)NC2C=CC(C(=O)OCCSC(F)(F)F)C2)CC(c2cc(F)cc(F)c2)=NO1 (centres unmarked) [Example I-13] | 90 | 80 | 80 | – | – | 80 | 80 | 90 | – | – | 80 | 80 | –
10 | CSCCOC(=O)C1C=CC(NC(=O)C2(C)CC(c3cccc(C#N)c3)=NO2)C1 (centres unmarked) [Example I-41] | 80 | – | – | – | – | – | – | 90 | – | – | – | 80 | Herbicidal action against [%] VERPE ([2]; 80 g a.i./ha): 80%; Herbicidal action against [%] LOLRI ([3]; 80 g a.i./ha): 80%; Herbicidal action against [%] DIGSA ([7]; 80 g a.i./ha): 80%; Herbicidal action against [%] STEME [13]: 80%; Herbicidal action against [%] AVEFA ([8]; 80 g a.i./ha): 100%; Herbicidal action against [%] HORMU ([14]; 20 g a.i./ha): 80%; Herbicidal action against [%] HORMU ([14]; 80 g a.i./ha): 90%; Herbicidal action against [%] SETVI ([12]; 80 g a.i./ha): 80%
11 | CC1(C(=O)NC2C=CC(C(=O)OCCSCC(F)(F)F)C2)CC(c2cc(F)cc(F)c2)=NO1 (centres unmarked) [Example I-12] | 90 | – | 80 | 80 | – | 80 | 80 | – | 80 | 80 | – | 80 | –
12 | CSCCOC(=O)C1C=CC(NC(=O)C2(CF)CC(c3cc(F)cc(C#N)c3)=NO2)C1 (centres unmarked) [Example I-65] | 90 | 80 | 80 | – | 80 | 80 | – | 80 | 90 | 80 | 80 | – | –
